Values quoted from earlier work, collected in patent publication US9968629B2, “Product and method for supporting uridine homeostasis” (N.V. Nutricia, priority 2012, dated 2018).

time after which all administered uridine has been used or is catabolised (FIG. 3 in WO 2007/089703, plasma uridine levels): 6 to 8 h
half time in the plasma (plasma): 3 to 4 h
Compound: O=c1ccn([C@@H]2O[C@H](CO)[C@@H](O)[C@H]2O)c(=O)[nH]1 [uridine]
toxic side effects (high doses of uridine): phlebitis, pyrogenic reactions and diarrhea
